According to the SangsterLogP compilation:

logP	SMILES
5.81	CCCCOC(=O)C(C)c1ccc2cc(OC)ccc2c1 (centres undefined)
3.05	COc1ccc2cc(C(C)C(=O)OCCO)ccc2c1 (centres undefined)
5.34	CCCOC(=O)C(C)c1ccc2cc(OC)ccc2c1 (centres undefined)
4.74	COc1ccc2cc(C(C)C(=O)OCCCCCCO)ccc2c1 (centres undefined)
4.06	COc1ccc2cc(C(C)C(=O)OCC(C)=O)ccc2c1 (centres undefined)
3.79	COc1ccc2cc(C(C)C(=O)OCCOCCO)ccc2c1 (centres undefined)
4.98	COc1ccc2cc(C(C)C(=O)OC(C)C)ccc2c1 (centres undefined)
6.54	CCCCCCOC(=O)C(C)c1ccc2cc(OC)ccc2c1 (centres undefined)

Continued, compound first:

SMILES	logP
COC(=O)C(C)c1ccc2cc(OC)ccc2c1 (centres undefined)	4.6
COc1ccc2cc(C(C)C(=O)OCC(C)O)ccc2c1 (centres undefined)	3.74
COc1ccc2cc(C(C)C(=O)OC3CCCCC3O)ccc2c1 (centres undefined)	4.71
COc1ccc2cc(C(C)C(=O)OC3CCCCC3)ccc2c1 (centres undefined)	5.82
CCCCCCCCOC(=O)C(C)c1ccc2cc(OC)ccc2c1 (centres undefined)	7.66
COc1ccc2cc(C(C)C(=O)OC3CCCCC3=O)ccc2c1 (centres undefined)	4.96
CCOC(=O)C(C)c1ccc2cc(OC)ccc2c1 (centres undefined)	4.78
CCC=CCCOC(=O)C(C)c1ccc2cc(OC)ccc2c1 (centres undefined)	6.21
COc1ccc2cc(C(C)C(=O)Oc3ccccc3)ccc2c1 (centres undefined)	5.17
CCCCCOC(=O)C(C)c1ccc2cc(OC)ccc2c1 (centres undefined)	6.02
CCC#CCCOC(=O)C(C)c1ccc2cc(OC)ccc2c1 (centres undefined)	5.91
COc1ccc2cc(C(C)C(=O)OC3COC4C(O)COC34)ccc2c1 (centres undefined)	3.14
COc1ccc2cc(C(C)C(=O)OCC=C(C)CCC=C(C)C)ccc2c1 (centres undefined)	7.77
CC=CC=CCOC(=O)C(C)c1ccc2cc(OC)ccc2c1 (centres undefined)	6.31
COc1ccc2cc(C(C)C(=O)OCCCO)ccc2c1 (centres undefined)	3.73
CCCCCCCOC(=O)C(C)c1ccc2cc(OC)ccc2c1 (centres undefined)	7.21
